Assay results taken from patent US9872844B2, “Compositions and methods for the reduction or prevention of hepatic steatosis” (priority 2014, dated 2018).

Tests used:
[1] = test system: hepatic lipid accumulation; conditions: 25 mg icariin/kg diet; corresponding to 4 mg/kg body weight/day; previous published studies; cited from earlier work
[2] = test system: hepatic steatosis; experiment: Prophylactic treatment concurrent with high fat diet: liver mass and hepatic lipid accumulation; format: in vivo, C57Bl/6 mice; conditions: treatment and HFD started same day, six weeks, metformin alone 1.5 g/kg diet, with or without resveratrol 12.5 mg/kg diet
Protocol: In this study, the prophylactic effects of metformin alone, and various combinations of metformin, leucine, and resveratrol on liver mass and hepatic steatosis are assessed. C57Bl/6 mice are assigned to the following experimental groups as depicted in Table 25: Drug treatments and high fat diet feeding (as described in Example 1) are initiated on the same day and are carried out for six weeks. The effects of the treatments and diet on liver mass and hepatic lipid accumulation are assessed as described in the preceding examples. […] In this study, the prophylactic effects of metformin alone, and various combinations of metformin, HMB, and resveratrol on liver mass and hepatic steatosis are assessed. C57Bl/6 mice are assigned to the following experimental groups as depicted in Table 26: Drug treatments and high fat diet feeding (as described in Example 1) are initiated on the same day and are carried out for six weeks. The effects of the treatments and diet on liver mass and hepatic lipid accumulation are assessed as described in the preceding examples. […] In this study, the prophylactic effects of sub-therapeutic leucine alone, and co-administration of leucine and the PDE5-specific inhibitor icariin on liver mass and hepatic steatosis are assessed. […] The effects of the treatments and diet on liver mass and hepatic lipid accumulation are assessed as described in the preceding examples.

[3] = test system: hepatic steatosis; experiment: Liver weight after six weeks treatment in chronic high fat diet mice; format: in vivo, C57Bl/6 mice; conditions: therapeutic metformin alone 1.5 g/kg diet
From the text: (§1) Chronic high fat diet was used in C57Bl/6 mice as an experimental model of hepatic steatosis. Male C57/BL6 mice were either maintained on standard low-fat diet (control; LFD; 10% energy from fat) or placed on a high fat (HFD; 60% energy from fat, Research Diets #D12492, Research Diets, Inc, New Brunswick, N.J.) at six weeks of age to induce obesity and fatty infiltration of the liver. […] Animals were then randomized to treatments for an additional six weeks, with 10 animals per group, as specified in the following examples.
(§2) In this study, the effects of metformin alone (therapeutic dose), subtherapeutic metformin alone, subtherapeutic leucine, and various combinations of leucine, metformin, and resveratrol on liver weight and hepatic lipid accumulation were assessed. The 1.5 g/kg diet of metformin corresponds to a therapeutically effective dose of metformin in humans. […] Likewise, the 24 g/kg dose of leucine represents a sub-therapeutic dose that was predicted to exert no significant independent effects on liver mass or hepatic steatosis. Following induction of hepatic steatosis as described in Example 1, animals were treated according to the following treatment groups as depicted in Table 21:
(§3) In this study, the effects of metformin alone (therapeutic dose) vs. combination therapy with sub-therapeutic amounts of metformin and leucine on liver weight and hepatic lipid accumulation were assessed. Following induction of hepatic steatosis as described in Example 1, animals were treated for six weeks according to the following treatment groups as depicted in Table 22:

[4] = test system: hepatic steatosis; experiment: Histological analysis of hepatic lipid accumulation in chronic high fat diet mice; format: in vivo, C57Bl/6 mice; conditions: HFD mice, six weeks
From the text: as §1, §2, §3

[5] = test system: liver triglycerides; conditions: Example 3; HFD mice, six weeks; therapeutic metformin alone 1.5 g/kg diet
From the text: as §1, §3

Compound | effect on liver mass or hepatic lipid accumulation [1] | HFD-induced increase in liver mass and hepatic lipid accumulation (prophylactic) ([2]; Example 6, leucine 24 g/kg diet + metformin 0.15-0.50 g/kg diet) | HFD-induced increase in liver mass and hepatic lipid accumulation (prophylactic) ([2]; Example 7, HMB (CaHMB, 2 g/kg diet) + metformin 0.15-0.50 g/kg diet) | effect on liver weight ([3]; Example 2, HFD mice, leucine 24 g/kg diet, resveratrol 12.5 mg/kg diet) | effect on liver weight ([3]; Example 3, HFD mice, p<0.02 vs. HFD, n.s. compared to LFD) | effect on liver weight ([3]; Example 4, HFD mice, p<0.03) | hepatic steatosis (histological analysis) ([4]; Example 2, metformin alone 1.5 g/kg diet, leucine 24 g/kg diet, resveratrol 12.5 mg/kg diet, combination with sub-therapeutic metformin) | hepatic steatosis (histological analysis) ([4]; Example 3, single agents at 'therapeutic dosages' (metformin 1.5 g/kg diet)) | hepatic steatosis (histological analysis) ([4]; Example 4, therapeutic metformin alone 1.5 g/kg diet) | effect on liver triglycerides [5]
COc1ccc(-c2oc3c(CC=C(C)C)c(O[C@@H]4O[C@H](CO)[C@@H](O)[C@H](O)[C@H]4O)cc(O)c3c(=O)c2O[C@@H]2O[C@@H](C)[C@H](O)[C@@H](O)[C@H]2O)cc1 [icariin] | no effect |  |  |  |  |  |  |  |  | 
metformin |  | attenuates the HFD-induced increase in liver mass and hepatic lipid accumulation | attenuates the HFD-induced increase in liver mass and hepatic lipid accumulation | partially reverse the effect of high fat diet on liver weight | reversed the effect of high fat diet on liver weight back to control levels | reversed the effect of high fat diet on liver weight back to control levels | partial reversal of the effects of HFD on hepatic steatosis | partially reversed hepatic steatosis | partially reversed hepatic steatosis | partially reversed the effect of high fat diet on liver triglycerides
